Assay results from patent US6376682B1, “Compound with α-glucosidase inhibiting action and method for producing the same” (Takama System, Ltd., priority 2000, dated 2002).

How the values were obtained:
[1] = system: blood sugar elevation caused by sucrose loading; experiment: Inhibiting effect on hyperglycemia in the case of sucrose loading; assay type: in vivo, male Wistar rats; conditions: rats; for Rate of inhibition of blood sugar elevation 30 minutes: po, 30 minutes after sucrose loading
Method: The test was oraly administered as an aqueous solution to fasting male Wistar rats (body weight: 130 to 170 g.
Next after 30 minutes, the sucrose was orally administered to the rats.
Then, 30 minutes, after the administered of the sugar, 0.4 ml of blood was taken from the neck artery of each animal with the animal under restraint without anesthesia (during blood collection only). following colling with ice water, the blood serum was separated by centrifuging, and the glucose concentration (blood sugar level) was measured by the glucose oxidase method (Glucose CII Test Wako).
The above-described test was performed for the novel compound SP (product of the present invention) and Acabose(clnventional roduct).

[2] = system: β-glucosidase originating in almonds; experiment: Activity inhibiting effect on β-glucosidase; assay type: biochemical; conditions: substrate p-nitrophenol-β-D-glycopyronoside, pH 5.0
Method: β-glucosidase originating in almonds (manufactured by Sigma Co.) was dissolved in a 0.1 M acetic acid buffer solution (pH=5.0), and this solution was diluted to a concentration at which the substrate was hydrolyzed at the rate of 5 n/mol/ml/minute.
100 μL of the test drug was added to 50 μL of 10 mM p-nitrophenol-β-D-glycopyronoside (manufactured by Sigma Co.) used as a substrate, and this mixture was preheated for 5 minutes at 37° C.
Next, 50 μL of the enzyme solution was added, and a reaction was performed for 15 minutes. The reaction was stopped by adding 200 μL of a 0.2 M sodium carbonate solution.
The amount of p-nitrophenol produced was determined from the absorbance at 400 nm.
The substrate and test drug were both dissolved in a 0.1 M acetic acid buffer solution (pH=5.0) prior to use.

[3] = biological target: T1, isomaltase originating in the small intestines of rats (Rattus norvegicus, UniProt P23739); experiment: Inhibiting effect on isomaltase, rat jejunum brush border membrane crude enzyme; assay type: biochemical; conditions: times stronger than Acarbose
T1 construct: The brush border membrane obtained from the jejunum of male Wistar rats (body weight: 150 to 350 g) was used as a crude enzyme; from tissue; host or cells: jejunal brush border membrane of male Wistar rats
T1 sequence (P23739 whole entry): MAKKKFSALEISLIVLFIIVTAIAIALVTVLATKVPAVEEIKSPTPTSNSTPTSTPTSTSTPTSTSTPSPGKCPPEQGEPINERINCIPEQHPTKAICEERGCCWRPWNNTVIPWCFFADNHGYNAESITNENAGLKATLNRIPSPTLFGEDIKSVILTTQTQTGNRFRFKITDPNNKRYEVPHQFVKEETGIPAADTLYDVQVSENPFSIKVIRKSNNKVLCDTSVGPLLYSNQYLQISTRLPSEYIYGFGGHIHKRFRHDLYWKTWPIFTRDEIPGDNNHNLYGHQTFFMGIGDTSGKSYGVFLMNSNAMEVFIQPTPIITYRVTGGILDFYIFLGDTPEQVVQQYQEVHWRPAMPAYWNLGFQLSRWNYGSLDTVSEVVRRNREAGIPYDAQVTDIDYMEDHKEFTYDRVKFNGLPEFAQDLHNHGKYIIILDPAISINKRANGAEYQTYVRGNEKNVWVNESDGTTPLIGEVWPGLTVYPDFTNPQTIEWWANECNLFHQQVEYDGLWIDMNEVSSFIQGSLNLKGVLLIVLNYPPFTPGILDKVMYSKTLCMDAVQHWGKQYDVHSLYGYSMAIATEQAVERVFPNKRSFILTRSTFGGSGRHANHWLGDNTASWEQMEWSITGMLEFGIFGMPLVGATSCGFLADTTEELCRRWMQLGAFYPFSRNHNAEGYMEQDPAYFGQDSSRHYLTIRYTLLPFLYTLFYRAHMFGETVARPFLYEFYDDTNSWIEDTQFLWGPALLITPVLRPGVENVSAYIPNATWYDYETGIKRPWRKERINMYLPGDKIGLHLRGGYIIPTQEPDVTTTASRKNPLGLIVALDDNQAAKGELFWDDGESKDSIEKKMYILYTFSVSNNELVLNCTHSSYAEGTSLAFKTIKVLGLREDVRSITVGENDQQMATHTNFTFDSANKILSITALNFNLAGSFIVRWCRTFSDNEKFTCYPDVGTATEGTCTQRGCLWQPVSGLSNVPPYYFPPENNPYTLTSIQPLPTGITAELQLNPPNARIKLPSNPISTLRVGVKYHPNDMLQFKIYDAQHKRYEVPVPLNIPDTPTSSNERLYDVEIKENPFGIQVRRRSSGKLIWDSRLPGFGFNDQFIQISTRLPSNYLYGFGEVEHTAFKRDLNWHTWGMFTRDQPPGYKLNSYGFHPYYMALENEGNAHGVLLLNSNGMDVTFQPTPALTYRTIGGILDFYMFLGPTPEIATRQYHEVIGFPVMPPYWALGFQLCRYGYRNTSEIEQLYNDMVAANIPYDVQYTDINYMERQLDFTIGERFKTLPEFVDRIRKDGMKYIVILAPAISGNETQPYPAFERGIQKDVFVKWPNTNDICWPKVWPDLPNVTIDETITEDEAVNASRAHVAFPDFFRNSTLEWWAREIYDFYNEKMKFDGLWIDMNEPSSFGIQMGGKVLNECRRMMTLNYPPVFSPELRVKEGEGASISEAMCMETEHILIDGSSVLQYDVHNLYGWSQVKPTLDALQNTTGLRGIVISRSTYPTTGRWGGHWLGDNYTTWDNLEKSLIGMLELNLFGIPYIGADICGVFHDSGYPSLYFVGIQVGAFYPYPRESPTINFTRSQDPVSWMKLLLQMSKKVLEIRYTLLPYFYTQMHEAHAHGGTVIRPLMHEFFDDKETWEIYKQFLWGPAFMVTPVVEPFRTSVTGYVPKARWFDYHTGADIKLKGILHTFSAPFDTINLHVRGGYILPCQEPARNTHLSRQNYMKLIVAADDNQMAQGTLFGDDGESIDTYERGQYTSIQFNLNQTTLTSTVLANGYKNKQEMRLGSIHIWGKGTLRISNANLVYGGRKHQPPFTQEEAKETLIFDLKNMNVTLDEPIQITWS
Method: The brush border membrane obtained from the jejunum of male Wistar rats (body weight: 150 to 350 g) was used as a crude enzyme.
The brush border membrane was suspended in a 0.01 M maleic acid buffer solution (pH=6.0), and this suspension was diluted to a concentration at which the substrate was hydrolyzed at the rate of approximately 25 to 50 n/mol/ml/minute.
For maltase, sucrase and isomaltase, 100 μL of various concentrations of the test drug was added to 50 μL of respective 74 mM maltose, sucrose and isomaltose (used as substrates), and the resulting preparations were pre-heated for 2 to 3 minutes at 37° C.
Next, 50 μL of the enzyme solution was added, and a reaction was performed for 30 minutes. The reaction was stopped by adding 800 μL of water, and placing the reaction mixture in a water bath at 92 to 97° C. for 2 minutes.
The amount of glucose produced was measured by the glucose oxidase method (Glucose CII Test Wako).
In the above, the substrates and test drug were both dissolved in a maleic acid buffer solution (pH=6.0) prior to use.

Structure (SMILES)	Rate of inhibition of blood sugar elevation 30 minutes ([1]; 5 mg/kg)	Rate of inhibition of blood sugar elevation 30 minutes ([1]; 10 mg/kg)	Rate of inhibition of blood sugar elevation 30 minutes ([1]; 25 mg/kg)	Effect in inhibiting the elevation of blood sugar levels compared with Acarbose ([1]; sucrose loading)	Activity inhibiting effect on β-glucosidase [2]	Inhibitory effect against isomaltose relative to Acarbose [3]
O=S(=O)([O-])OC(CO)C(O)C[S+]1CC(O)C(O)C1CO (stereo not drawn) [SP]	40.5 ± 2.3	62.1 ± 3.8	89.1 ± 3.5	stronger effect in inhibiting the elevation of blood sugar levels than Acarbose	no activity inhibiting effect	more than 200 times
C[C@H]1O[C@H](O[C@H]2[C@H](O)[C@@H](O)[C@@H](O[C@H]3[C@H](O)[C@@H](O)C(O)O[C@@H]3CO)O[C@@H]2CO)[C@H](O)[C@@H](O)[C@@H]1N[C@H]1C=C(CO)[C@@H](O)[C@H](O)[C@H]1O (stereo partly drawn) [Acarbose, reference compound]	33.4 ± 6.2	48.5 ± 6.9	73.8 ± 5.2	–	–	–
